The nature of series [1]: Physical stability, Thioflavin T fibrillation assay (Example 14). Format: physicochemical. Particulars: 3 mg/ml, 37° C. shaking. As to the method: The physical stability of the compounds was assessed using a Thioflavin T (ThT) assay.
The time course for fibril formation often follows the characteristic shape of a sigmoidal curve and can be separated into three regions: a lag phase, a fast growth phase, and a plateau phase. The typical fibril formation process starts with the lag phase in which the amount of partially folded peptide turned into fibrils is not significant enough to be detected. The lag-time corresponds to the time the critical mass of the nucleus is built. Afterwards, a drastic elongation phase follows and fibril concentration increases rapidly. Therefore, by measuring the increase in fluorescence intensity attributable to ThT as well as the lag time of the increase, the fibrillation tendency of a peptide can be determined, thereby providing a measure of the physical stability of the peptide.
In the present study, test compounds were diluted in buffer to a final concentration of 3 mg/ml.
The fibrillation tendencies of the peptides were determined under stress using a Fluoroskan Ascent FL or Fluoroskan Ascent fluorometer. […] Plates were sealed with Scotch Tape (Quiagen). Samples were stressed by continuous cycles of 10 s shaking at 960 rpm and 50 s rest period at 37° C. Fibril development was monitored by measuring fluorescence intensity every 20 minutes. For each sample, eight replicates were tested.

The target in a further series is T1, human CRF2α receptor (Homo sapiens, UniProt Q13324).
T1 construct: expressed in transfected cells; host or cells: TeloHEAC
T1 sequence (Q13324 1-411): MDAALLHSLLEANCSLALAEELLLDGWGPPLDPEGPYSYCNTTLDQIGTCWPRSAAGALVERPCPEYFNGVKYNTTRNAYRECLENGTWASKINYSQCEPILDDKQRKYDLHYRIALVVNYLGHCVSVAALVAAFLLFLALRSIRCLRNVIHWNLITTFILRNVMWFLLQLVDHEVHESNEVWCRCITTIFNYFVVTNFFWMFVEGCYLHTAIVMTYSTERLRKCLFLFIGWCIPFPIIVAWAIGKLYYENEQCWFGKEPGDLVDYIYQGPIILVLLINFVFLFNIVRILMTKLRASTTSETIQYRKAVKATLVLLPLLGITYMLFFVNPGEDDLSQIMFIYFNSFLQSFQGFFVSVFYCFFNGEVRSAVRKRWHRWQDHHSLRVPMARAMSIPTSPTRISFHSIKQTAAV
As to the kind of experiment: cAMP agonism at human CRF2 α receptor in TeloHEAC cells (Example 7). Type of series: cell-based. Conditions: cAMP HTRF, TeloHEAC cells stably expressing human CRF2 α. The procedure, abridged:
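Percent activation was referenced to 1000 nM UCN2 (100%), and EC50 values taken as concentrations giving half of maximal response. The read-out was a homogeneous time-resolved fluorescence cAMP kit, fluorescence ratio 665/620 nm. Thawed cells (2000/well) saw compound for 30 min at RT in buffer with 2 mM IBMX and 0%/0.1% HSA.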
(In general: Time-resolved FRET reads energy transfer from a long-lived donor to a nearby acceptor.)

The subject of a further series is rat CRF2R α receptor. As to the kind of experiment: cAMP agonism at rat CRF2R α receptor in A7R5 rat aortic smooth muscle cells (Example 8). Type of series: cell-based. Particulars: cAMP HTRF, A7R5 rat aortic smooth muscle cell line, 0% HSA. An outline of the steps: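 Potency (EC50) is the concentration reaching half-maximal activation, with responses scaled so that 1000 nM urocortin 2 equals 100%. Intracellular cAMP was quantified by homogeneous time-resolved fluorescence at 665/620 nm, 1 h after lysis-buffer reagents. Compound stimulation lasted 30 min at room temperature on 2000 IBMX-treated (2 mM) cells per well in HEPES-buffered HBSS.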

A further series addresses T2, CRF1R receptor (Homo sapiens, UniProt P34998).
T2 construct: host or cells: CHO-K1 clone 2
T2 sequence (P34998 24-415): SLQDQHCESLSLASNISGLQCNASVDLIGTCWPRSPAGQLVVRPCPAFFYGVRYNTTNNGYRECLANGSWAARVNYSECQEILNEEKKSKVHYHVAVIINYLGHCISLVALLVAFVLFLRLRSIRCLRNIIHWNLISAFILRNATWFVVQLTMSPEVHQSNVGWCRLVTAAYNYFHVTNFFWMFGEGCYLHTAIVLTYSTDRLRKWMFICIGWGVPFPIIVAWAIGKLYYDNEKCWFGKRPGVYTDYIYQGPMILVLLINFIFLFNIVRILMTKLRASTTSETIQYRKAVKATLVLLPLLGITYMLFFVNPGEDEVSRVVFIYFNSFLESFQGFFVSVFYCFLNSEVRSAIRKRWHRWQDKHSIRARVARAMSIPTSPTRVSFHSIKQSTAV
Description: cAMP activity at anti-target CRF1R, CRF1R-overexpression CHO cell line (Example 9). Type of series: cell-based. Particulars: CRF1R-overexpression CHO cell line; for EC50: 0% HSA; for Emax: read-out: Emax (%). An outline of the steps:
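Using thawed CRF1R-overexpressing CHO cells at 2000 per well, compound is applied for 30 min at RT in HBSS/HEPES buffer with IBMX. Cellular cAMP content is determined via HTRF, and percent activity is calculated against 1000 nM UCN2 defined as 100%.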

Series [2] is described as follows: Solubility in buffer systems by UPLC-UV (Example 13). Type of series: physicochemical. An outline of the steps:
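Quantitation used UV peak area from UPLC of the 1:10-diluted supernatant, set against a reference-compound standard curve with extinction coefficients adjusted for amino acid sequence.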

Where [3] appears, read: Buffer B: 100 mM acetate buffer, pH 4.5, 2.7 mg/ml m-cresol.
Setting [4] is: 0% HSA, read-out: EC50 [nM], 0% HSA.
The mark [5] stands for this setting: pH 4.5, Solubility in Buffer B [mg/ml].
Where [6] appears, read: Buffer A: 100 mM acetate buffer, pH 4.5.
Setting [7] is: pH 7.4, Solubility in Buffer C [mg/ml].

Read-outs that look alike come from different tables or passages of the source. Starred links: 1 amine or outer side, 2 acyl side, 3 side chain; linkers in the order of their positions; H or OH if unused. Non-standard residues stand in square brackets, D forms with d. Residues, ends and D or L forms follow the SMILES beside them. Groups on a side chain read outwards from the residue. *: point of attachment. C18 diacid = O=C(O)CCCCCCCCCCCCCCCCC(=O)*; γGlu = O=C(O)[C@H](CCC(=O)[*:2])N[*:1]; AEEA = NCCOCCOCC(=O)O; Aib = CC(C)(N)C(=O)O Some results are limits rather than exact numbers.

As a reminder, the EC50 is the concentration that produces a half-maximal response. A word on the Emax: it is the maximal effect, on the per cent scale that the assay sets. Usually solubility stands for the dissolved amount per volume that the medium holds. Higher therefore signals much dissolved substance.

With `CC[C@H](C)[C@H](N)C(=O)N[C@H](C(=O)N[C@@H](CC(C)C)C(=O)N[C@@H](CO)C(=O)N[C@@H](CC(C)C)C(=O)N[C@@H](CC(=O)O)C(=O)N[C@H](C(=O)N1CCC[C@H]1C(=O)N[C@H](C(=O)N[C@@H](CCCCN)C(=O)N[C@@H](CC(C)C)C(=O)N[C@@H](CCCCNC(=O)COCCOCCNC(=O)COCCOCCNC(=O)CC[C@H](NC(=O)CCCCCCCCCCCCCCCCC(=O)O)C(=O)O)C(=O)N[C@@H](CCC(N)=O)C(=O)N[C@H](C(=O)N[C@@H](CC(C)C)C(=O)N[C@@H](CC(C)C)C(=O)N[C@@H](CCC(=O)O)C(=O)N[C@@H](CCC(N)=O)C(=O)N[C@@H](CCC(=O)O)C(=O)N[C@@H](CCCNC(=N)N)C(=O)N[C@@H](CCC(N)=O)C(=O)N[C@@H](CCCCN)C(=O)N[C@@H](CCCCN)C(=O)N[C@@H](CCC(N)=O)C(=O)N[C@@H](CCCNC(=N)N)C(=O)N[C@@H](CCC(N)=O)C(=O)N[C@@H](CCC(N)=O)C(=O)N[C@@H](C)C(=O)N[C@@H](CCC(=O)O)C(=O)N[C@H](C(=O)N[C@@H](CC(N)=O)C(=O)NC(C)(C)C(=O)N[C@@H](CCC(N)=O)C(=O)N[C@H](C(=O)N[C@@H](CC(C)C)C(=O)N[C@@H](C)C(=O)N[C@@H](CCC(N)=O)C(=O)N[C@H](C(N)=O)C(C)C)[C@@H](C)CC)[C@@H](C)O)[C@@H](C)CC)[C@@H](C)CC)C(C)C)C(C)C` [compound 72] (H-IVLSLDVPIKLK([AEEA-AEEA-γGlu-C18 diacid])QILLEQERQKKQRQQAETN[Aib]QILAQV-NH2; N-terminus assumed), in series [1] (setting [3]), the “Increase in FI (fluorescence intensity)” value is on record as “Yes” and the “Lag time” value was in the range of 34.7 to 41.0 h. The EC50 at human CRF2α receptor (setting [4]) is 0.65 nM. In addition, the midpoint of the response in the series on rat CRF2R α receptor, the EC50, lay at 4.31 nM. Besides, at CRF1R receptor, the EC50 was more than 1000 nM and the Emax was determined as 2.58%. Also, the solubility at 1 h in series [2] (setting [5]) is more than 10700 µg/mL.

With `CC[C@H](C)[C@H](N)C(=O)N[C@H](C(=O)N[C@@H](CC(C)C)C(=O)N[C@@H](CO)C(=O)N[C@@H](CC(C)C)C(=O)N[C@@H](CC(=O)O)C(=O)N[C@H](C(=O)N1CCC[C@H]1C(=O)N[C@H](C(=O)N[C@@H](CCCCN)C(=O)N[C@@H](CC(C)C)C(=O)N[C@@H](CCCCNC(=O)COCCOCCNC(=O)COCCOCCNC(=O)CC[C@H](NC(=O)CCCCCCCCCCCCCCCCC(=O)O)C(=O)O)C(=O)N[C@@H](CCC(N)=O)C(=O)N[C@H](C(=O)N[C@@H](CC(C)C)C(=O)N[C@@H](CC(C)C)C(=O)N[C@@H](CCCCN)C(=O)N[C@@H](CCC(N)=O)C(=O)N[C@@H](CCC(=O)O)C(=O)N[C@@H](CCCNC(=N)N)C(=O)N[C@@H](CCC(N)=O)C(=O)N[C@@H](CCCCN)C(=O)N[C@@H](CCCCN)C(=O)N[C@@H](CCC(N)=O)C(=O)N[C@@H](CCCNC(=N)N)C(=O)N[C@@H](CCC(N)=O)C(=O)N[C@@H](CCC(N)=O)C(=O)N[C@@H](C)C(=O)N[C@@H](CCC(=O)O)C(=O)N[C@H](C(=O)N[C@@H](CC(N)=O)C(=O)NC(C)(C)C(=O)N[C@@H](CCC(N)=O)C(=O)N[C@H](C(=O)N[C@@H](CC(C)C)C(=O)N[C@@H](C)C(=O)N[C@@H](CCC(N)=O)C(=O)N[C@H](C(N)=O)C(C)C)[C@@H](C)CC)[C@@H](C)O)[C@@H](C)CC)[C@@H](C)CC)C(C)C)C(C)C` [compound 75] (H-IVLSLDVPIKLK([AEEA-AEEA-γGlu-C18 diacid])QILLKQERQKKQRQQAETN[Aib]QILAQV-NH2), the “Increase in FI (fluorescence intensity)” value in series [1] (setting [6]) and in series [1] (setting [3]) was “No” each time. For the same compound, the “Lag time” value in series [1] (setting [6]) and in series [1] (setting [3]) was more than 45 h throughout. Further, the EC50 is 0.48 nM on human CRF2α receptor (setting [4]), 1.71 nM with rat CRF2R α receptor and more than 1000 nM at CRF1R receptor. In addition, on CRF1R receptor, the Emax was 2.7%. For the same compound, the solubility at 1 h is more than 9000 µg/mL in series [2] (setting [5]) and more than 7900 µg/mL in series [2] (setting [7]).

Turning to `CC[C@H](C)[C@H](NC(=O)[C@H](CCC(N)=O)NC(=O)[C@H](CCCCNC(=O)COCCOCCNC(=O)COCCOCCNC(=O)CC[C@H](NC(=O)CCCCCCCCCCCCCCCCC(=O)O)C(=O)O)NC(=O)[C@H](CC(C)C)NC(=O)[C@H](CCCCN)NC(=O)[C@@H](NC(=O)[C@@H]1CCCN1C(=O)[C@@H](NC(=O)[C@H](CC(=O)O)NC(=O)[C@H](CC(C)C)NC(=O)[C@H](CO)NC(=O)[C@H](CC(C)C)NC(=O)[C@@H](NC(=O)[C@@H](N)Cc1ccccc1)[C@@H](C)O)C(C)C)[C@@H](C)CC)C(=O)N[C@@H](CC(C)C)C(=O)N[C@@H](CC(C)C)C(=O)N[C@@H](CCCCN)C(=O)N[C@@H](CCC(N)=O)C(=O)N[C@@H](CCC(=O)O)C(=O)N[C@@H](CCCNC(=N)N)C(=O)N[C@@H](CCC(N)=O)C(=O)N[C@@H](CCCCN)C(=O)N[C@@H](CCCCN)C(=O)N[C@@H](CCC(N)=O)C(=O)N[C@@H](CCCNC(=N)N)C(=O)N[C@@H](CCC(N)=O)C(=O)N[C@@H](CCCCN)C(=O)N[C@@H](C)C(=O)N[C@@H](CCCCN)C(=O)N[C@@H](CCCCN)C(=O)N[C@@H](CC(N)=O)C(=O)N[C@@H](CCCCN)C(=O)N[C@@H](CCC(N)=O)C(=O)N[C@H](C(=O)N[C@@H](CC(C)C)C(=O)N[C@@H](CCC(=O)O)C(=O)N[C@@H](CCCNC(=N)N)C(=O)N[C@H](C(N)=O)C(C)C)[C@@H](C)CC` [compound 146] (H-FTLSLDVPIKLK([AEEA-AEEA-γGlu-C18 diacid])QILLKQERQKKQRQKAKKNKQILERV-NH2; N-terminus assumed), the “Increase in FI (fluorescence intensity)” value in series [1] (setting [6]) and in series [1] (setting [3]) was “No” throughout. In addition, the “Lag time” value in series [1] (setting [6]) and in series [1] (setting [3]) was more than 45 h each time. Besides, the EC50 is 0.11 nM on human CRF2α receptor (setting [4]); 4.36 nM on human CRF2α receptor (0.1% HSA, read-out: EC50 [nM], 0.1% HSA); 0.22 nM with rat CRF2R α receptor; more than 1000 nM at CRF1R receptor. Further, the Emax on CRF1R receptor turned out to be 1.03%. Further, the solubility at 1 h in series [2] (setting [7]) is more than 8800 µg/mL.

The values are drawn from US12679878B2, “CRF2 receptor agonists and their use in therapy” (SANOFI, priority 2020, dated 2026).
